{"source": "patent US10961279B2", "about": "(priority 2011, dated 2021)", "system": "CTLL-2 cells", "assay_type": "cell-based"}
{"sequence": "DRGWGNGCGDFGKG [FLV FUS non-IS]", "values": [{"measurement": "effect of the dimeric peptides on proliferation of CTLL-2 cells", "value": "non-immune suppressive"}]}
{"sequence": "DRGWGNGCGLFGKG [monomeric peptide]", "values": [{"measurement": "inhibition of proliferation of CTLL-2 cells", "value": "no effect"}]}
{"sequence": "GLFGAIAGFIENGWEGCGGEKEKEK [wt INF]", "values": [{"measurement": "effect of the dimeric peptides on proliferation of CTLL-2 cells (synthesis of new DNA)", "value": "inhibits synthesis of new DNA"}]}
{"sequence": "PALSTGLIHLHQNIVDVQCGGEKEKEK", "values": [{"measurement": "inhibition of proliferation of T-cells", "value": "inhibits proliferation of T-cells in a concentration dependent manner"}]}
